Values quoted from earlier work in patent US20070292469A1, “Antimicrobial composition” (priority 2005, published 2007).

System: wide range of microorganisms
Conditions: literature statement (Block, Disinfection, Sterilization, and Preservation 4th ed. 1991)

In the case of monoethanolamines, the antimicrobial activity is listed as “lack dramatic antimicrobial activity”.
In the case of “α-4-[1-tris(2-hydroxyethyl) ammonium-2-butenyl] poly[1-dimethylammonium-2-butenyl]-ω-tris(2-hydroxyethyl)ammonium chloride [polyquaternium 1]”, the antimicrobial activity is listed as “significant antimicrobial activity”.
